Reference: ChEMBL document CHEMBL4308841, “Synthesis, in vitro antiproliferative activity, and kinase inhibitory effects of pyrazole-containing diarylureas and diarylamides” (Eur J Med Chem, 2018)
pIC50: −log10 of the molar value.

How the values were obtained:
Malme-3M [1] = assay: Growth inhibition of human MALME-3M cells assessed as cell growth at 0.01 uM incubated for 48 hrs by sulforhodamine B assay relative to control; assay type: functional; details: read-out: Activity
MDA-MB-231 [2] = assay: Growth inhibition of human MDA-MB-231 cells assessed as cell growth at 0.01 uM incubated for 48 hrs by sulforhodamine B assay relative to control; assay type: functional; details: MDA-MB-231, 48 h, read-out: Activity
OVCAR-5 = assay: Growth inhibition of human OVCAR5 cells assessed as cell growth at 0.01 uM incubated for 48 hrs by sulforhodamine B assay relative to control; assay type: functional; details: OVCAR-5, 48 h, read-out: Activity
OVCAR-3 [3] = assay: Growth inhibition of human OVCAR3 cells assessed as cell growth at 0.01 uM incubated for 48 hrs by sulforhodamine B assay relative to control; assay type: functional; details: OVCAR-3, 48 h, read-out: Activity
MDA-MB-231 [4] = assay: Growth inhibition of human MDA-MB-231 cells assessed as cell growth at 0.1 uM incubated for 48 hrs by sulforhodamine B assay relative to control; assay type: functional; details: MDA-MB-231, 48 h, read-out: Activity
Hs-578T = assay: Growth inhibition of human Hs578T cells assessed as cell growth at 0.1 uM incubated for 48 hrs by sulforhodamine B assay relative to control; assay type: functional; details: read-out: Activity
OVCAR-3 [5] = assay: Growth inhibition of human OVCAR3 cells assessed as cell growth at 1 uM incubated for 48 hrs by sulforhodamine B assay relative to control; assay type: functional; details: OVCAR-3, 48 h, read-out: Activity
HOP-62 = assay: Growth inhibition of human HOP62 cells incubated for 48 hrs by sulforhodamine B assay; assay type: functional, cell-based; details: HOP-62, 48 h
SK-MEL-2 [6] = assay: Growth inhibition of human SK-MEL-2 cells assessed as cell growth at 100 uM incubated for 48 hrs by sulforhodamine B assay relative to control; assay type: functional; details: SK-MEL-2, 48 h, read-out: Activity
PC-3 = assay: Growth inhibition of human PC3 cells assessed as cell growth at 0.1 uM incubated for 48 hrs by sulforhodamine B assay relative to control; assay type: functional; details: PC-3, 48 h, read-out: Activity
UO-31 [7] = assay: Growth inhibition of human UO31 cells assessed as cell growth at 0.1 uM incubated for 48 hrs by sulforhodamine B assay relative to control; assay type: functional; details: UO-31, 48 h, read-out: Activity
NCI-H23 = assay: Growth inhibition of human NCI-H23 cells incubated for 48 hrs by sulforhodamine B assay; assay type: functional, cell-based; details: NCI-H23, 48 h
Malme-3M [8] = assay: Growth inhibition of human MALME-3M cells assessed as cell growth at 100 uM incubated for 48 hrs by sulforhodamine B assay relative to control; assay type: functional; details: read-out: Activity
SK-MEL-2 [9] = assay: Growth inhibition of human SK-MEL-2 cells assessed as cell growth at 0.1 uM incubated for 48 hrs by sulforhodamine B assay relative to control; assay type: functional; details: SK-MEL-2, 48 h, read-out: Activity
A549 = assay: Growth inhibition of human A549/ATCC cells assessed as cell growth at 100 uM incubated for 48 hrs by sulforhodamine B assay relative to control; assay type: functional; details: A549, 48 h, read-out: Activity
HCT-116 = assay: Growth inhibition of human HCT116 cells assessed as cell growth at 0.1 uM incubated for 48 hrs by sulforhodamine B assay relative to control; assay type: functional; details: HCT-116, 48 h, read-out: Activity
SK-MEL-2 [10] = assay: Growth inhibition of human SK-MEL-2 cells incubated for 48 hrs by sulforhodamine B assay; assay type: functional, cell-based; details: SK-MEL-2, 48 h
SF-539 = assay: Growth inhibition of human SF539 cells incubated for 48 hrs by sulforhodamine B assay; assay type: functional, cell-based; details: SF-539, 48 h
MCF7 = assay: Growth inhibition of human MCF7 cells incubated for 48 hrs by sulforhodamine B assay; assay type: functional, cell-based; details: MCF7, 48 h
SK-MEL-28 = assay: Growth inhibition of human SK-MEL-28 cells incubated for 48 hrs by sulforhodamine B assay; assay type: functional, cell-based; details: SK-MEL-28, 48 h
UACC-257 = assay: Growth inhibition of human UACC257 cells assessed as cell growth at 100 uM incubated for 48 hrs by sulforhodamine B assay relative to control; assay type: functional; details: UACC-257, 48 h, read-out: Activity
HCT-15 = assay: Growth inhibition of human HCT15 cells incubated for 48 hrs by sulforhodamine B assay; assay type: functional, cell-based; details: HCT-15, 48 h
MDA-MB-435 = assay: Growth inhibition of human MDA-MB-435 cells assessed as cell growth at 100 uM incubated for 48 hrs by sulforhodamine B assay relative to control; assay type: functional; details: MDA-MB-435, 48 h, read-out: Activity
UO-31 [11] = assay: Growth inhibition of human UO31 cells incubated for 48 hrs by sulforhodamine B assay; assay type: functional, cell-based; details: UO-31, 48 h
ACHN = assay: Growth inhibition of human ACHN cells assessed as cell growth at 1 uM incubated for 48 hrs by sulforhodamine B assay relative to control; assay type: functional; details: read-out: Activity
RPMI-8226 = assay: Growth inhibition of human RPMI8226 cells assessed as cell growth at 1 uM incubated for 48 hrs by sulforhodamine B assay relative to control; assay type: functional; details: RPMI-8226, 48 h, read-out: Activity
SF-295 = assay: Growth inhibition of human SF295 cells assessed as cell growth at 0.01 uM incubated for 48 hrs by sulforhodamine B assay relative to control; assay type: functional; details: SF-295, 48 h, read-out: Activity
[12] = read-out: LC50 (the source's name)
[13] = read-out: pLC50 (the source's name) (converted)

O=C(Nc1cccc(-n2cc(-c3ccncc3)c(-c3cc(O)cc(Cl)c3)n2)c1)Nc1ccc(Cl)c(Cl)c1 was tested, and the growth at 0.01 µM (Malme-3M [1]) was 57%, the growth at 0.01 µM (MDA-MB-231 [2]) was 94% and the growth at 0.01 µM (OVCAR-5) was 53%. The growth at 0.01 µM (OVCAR-3 [3]) was 103%, the growth at 0.1 µM (MDA-MB-231 [4]) was 85% and the growth at 0.1 µM (Hs-578T) was 92%. For the same molecule, the growth at 1 µM (OVCAR-3 [5]) was 85%, the GI50 (HOP-62; read-out: GI50) was 2.52 µM and the CC50 (HOP-62; [12]) was greater than 100 µM. The TGI (HOP-62; read-out: TGI) was 85.1 µM, the GI50 (HOP-62; read-out: pGI50 (converted)) was 2.82 µM and the CC50 (HOP-62; [13]) was greater than 100 µM. For the same molecule, the TGI (HOP-62; read-out: pTGI (converted)) was 8.51 µM, the growth at 100 µM (SK-MEL-2 [6]) was -52% and the growth at 0.1 µM (PC-3) was 90%. For the same molecule, the growth at 0.1 µM (UO-31 [7]) was 93%, the GI50 (NCI-H23; read-out: GI50) was 2.41 µM and the LC50 (NCI-H23; read-out: LC50) was greater than 100 µM. The TGI (NCI-H23; read-out: TGI) was 62.9 µM, the GI50 (NCI-H23; read-out: pGI50 (converted)) was 2.4 µM and the LC50 (NCI-H23; read-out: pLC50 (converted)) was greater than 100 µM. The TGI (NCI-H23; read-out: pTGI (converted)) was 5.01 µM, the growth at 100 µM (Malme-3M [8]) was -45% and the growth at 0.1 µM (SK-MEL-2 [9]) was 96%. The growth at 100 µM (A549) was -32%, the growth at 0.1 µM (HCT-116) was 102% and the GI50 (SK-MEL-2 [10]; read-out: GI50) was 1.3 µM. For the same molecule, the CC50 (SK-MEL-2 [10]; [12]) was 9.1 µM, the TGI (SK-MEL-2 [10]; read-out: TGI) was 40.4 µM and the GI50 (SK-MEL-2 [10]; read-out: pGI50 (converted)) was 1.78 µM. The CC50 (SK-MEL-2 [10]; [13]) was 9.12 µM, the TGI (SK-MEL-2 [10]; read-out: pTGI (converted)) was 4.07 µM and the GI50 (SF-539; read-out: GI50) was 1.44 µM. It also gave a CC50 (SF-539; [12]) of 7.4 µM, a TGI (SF-539; read-out: TGI) of 32.7 µM and a GI50 (SF-539; read-out: pGI50 (converted)) of 1.45 µM. For the same molecule, the CC50 (SF-539; [13]) was 7.41 µM, the TGI (SF-539; read-out: pTGI (converted)) was 3.24 µM and the GI50 (MCF7; read-out: GI50) was 2.51 µM. It also gave an LC50 (MCF7; read-out: LC50) greater than 100 µM, a TGI (MCF7; read-out: TGI) of 97.4 µM and a GI50 (MCF7; read-out: pGI50 (converted)) of 2.82 µM. The LC50 (MCF7; read-out: pLC50 (converted)) was greater than 100 µM, the TGI (MCF7; read-out: pTGI (converted)) was 9.77 µM and the GI50 (SK-MEL-28; read-out: GI50) was 2.14 µM. For the same molecule, the CC50 (SK-MEL-28; [12]) was 4.2 µM, the TGI (SK-MEL-28; read-out: TGI) was 55.5 µM and the GI50 (SK-MEL-28; read-out: pGI50 (converted)) was 2.14 µM. For the same molecule, the CC50 (SK-MEL-28; [13]) was 41.7 µM, the TGI (SK-MEL-28; read-out: pTGI (converted)) was 5.5 µM and the growth at 100 µM (UACC-257) was -92%. It also gave a GI50 (HCT-15; read-out: GI50) of 2.1 µM, a CC50 (HCT-15; [12]) greater than 100 µM and a TGI (HCT-15; read-out: TGI) of 80.4 µM. The GI50 (HCT-15; read-out: pGI50 (converted)) was 2.09 µM, the CC50 (HCT-15; [13]) was greater than 100 µM and the TGI (HCT-15; read-out: pTGI (converted)) was 8.13 µM. For the same molecule, the growth at 100 µM (MDA-MB-435) was -45%, the pIC50 (UO-31 [11]) was 5.72 and the GI50 (UO-31 [11]; read-out: GI50) was 1.91 µM. For the same molecule, the CC50 (UO-31 [11]; [12]) was greater than 100 µM, the TGI (UO-31 [11]; read-out: TGI) was 65.1 µM and the GI50 (UO-31 [11]; read-out: pGI50 (converted)) was 1.91 µM. The CC50 (UO-31 [11]; [13]) was greater than 100 µM, the TGI (UO-31 [11]; read-out: pTGI (converted)) was 6.46 µM and the growth at 1 µM (ACHN) was 79%. The growth at 1 µM (RPMI-8226) was 57% and the growth at 0.01 µM (SF-295) was 92%.
